Measurements taken from US7371768B2, “Pyrazol derivatives, pest control agent comprising the same as active ingredient, and process for producing the same” (Nihon Nohyaku Co., Ltd., priority 2000, dated 2008).
Read-outs that look alike come from different tables or passages of the source.

Assays:
Nilaparvata lugens [1] = test: Insecticidal effect on larvae of brown rice planthopper through systemic activity (root uptake); type: in vivo; settings: for Death rate (%) 0.8 ppm: 0.8 ppm agent solution at rice roots; for Death rate (%) 0.8 ppm / Death rate (%) 3.1 ppm: larvae placed after 3 days, 4th day, 25° C.; for Death rate (%) 3.1 ppm: 3.1 ppm agent solution at rice roots; for insecticidal activity through systemic property, in words: summary of Table 6
Experimental: Roots of young rice seedlings (height: about 10 cm) planted in a plastic cup were washed with water and soil was washed away so as not to damage the fine roots. The stem was pinched by a urethane tip (diameter: 3 cm, height: 2 cm) having a cut line and the roots were inserted into an Erlenmeyer flask to which 50 ml of an agent solution (an aqueous dilution of the agricultural and horticultural insecticide of the present invention prepared in accordance with Formulation Example 1) was placed beforehand (2 to 3 young rice seedlings/flask). The urethane chip was wedged into the mouse of the flask to fix the rice seedlings. A glass tube (diameter: 3 cm, height: 5 cm) was placed thereon, wedged into the urethane chip, and fixed with a tape. The flask in such state was kept in a constant temperature room at 25° C. for 3 days. Five larvae of Nilaparvata lugens were placed in the glass tube and then the tube was capped with a urethane chip, followed by keeping in the constant temperature room at 25° C. (duplicates at a concentration). The mortality and agony of the larvae were investigated on 4th day after the treatment to obtain a death rate (%) taking an agonizing insect as a ½ dead insect. This test was carried out on two agent solutions different in the concentration of the active ingredient. The results are shown in Table 6 (the compound numbers in the table correspond to the numbers in Table 1).
Additionally, as reference compounds, Compounds I, II and III described in JP-A-10-338676 were similarly tested.

[2] = tested on: Chinese hamster lung fibroblast line V79; test: In vitro intercellular metabolic cooperation inhibition test (IMC); type: cell-based
Experimental: In this Test Example, using an inhibitory action of gap-junctional intercellular communication as an index, the existence of carcinogenicity (tumor-promoting action) of a compound was investigated.
In this test, a mixed culture system of Chinese hamster lung fibroblast line V79 (hgprt+) having hypoxanthine-guanine phosphoribosyltransferase activity and cells having no such activity (hgprt−) was treated by adding thereto the following compounds together with 6-thioguanine (6-TG). When the intercellular communication is normal, the toxic metabolite of 6-TG formed in hgprt+ cells (6-TG sensitive) is transferred into hgprt− cells (6-TG resistant) through gap junction, so that both of the cells die. On the other hand, when the intracellular communication is inhibited by the test compound, only the hgprt− cells survive and form colonies.

Plutella xylostella = test: Insecticidal effect on larvae of diamond back moth, cabbage leaf disc dip; type: in vivo; settings: 500 ppm, 3-instar larvae, 25° C., after 4 days, agonizing insect counted as 1/2 dead
Experimental: A disc (diameter: 6 cm) cut out of a cabbage leaf was for 1 minute in an aqueous dilution of the agricultural and horticultural insecticide of the present invention prepared in accordance with Formulation Example 1, then air-dried, and placed in a plastic cup (inner diameter: 7 cm). Five 3-instar larvae of Plutella xylostella were set free in the cup (duplicates at a concentration). The cup was kept in a constant temperature room at 25° C., and the death and agony of the larvae were investigated after 4 days from the treatment to obtain a death rate (%) taking an agonizing insect as a ½ dead insect. The results are shown in Table 3 (the compound numbers in the following table below correspond to the numbers in Table 1).

Callosobruchus chinensis = test: Insecticidal effect on imagoes of adzuki bean weevil, spray test; type: in vivo; settings: 500 ppm, sprayed, 25° C., after 4 days, agonizing insect counted as 1/2 dead
Experimental: Two adzuki beans were put in a glass cylinder (inner diameter: 3 cm×length: 15 cm), and 10 imagoes of Callosobruchus chinensis were set free therein. An agricutural and horticultural insecticide of the present invention was prepared in accordance with Formulation and diluted with water, and 0.3 ml of the resulting dilution was sprayed in the above glass cylinder with a spray tower (manufactured by Mizuho Rika) (duplicates at a concentration). The cylinder was kept in temperature room at 25° C., and the mortality and agony of thee larvae were investigated after 4 days from the treatment to obtain a death rate (%) taking an agonizing insect as a ½ dead insect. The results obtained are shown in Table 4 (the compound numbers in the table correspond to the numbers in Table 1).

Nilaparvata lugens [3] = test: Insecticidal effect on larvae of brown rice planthopper, spray test; type: in vivo; settings: 500 ppm, sprayed, 4th instar larvae, 25° C., after 5 days; agonizing insect counted as 1/2 dead
Experimental: A rice seedling was planted in a glass cylinder (inner diameter: 3 cm×length: 17 cm), and five 4th instar larvae of Nilaparvata lugens were set free therein. An agricultural and horticultural insecticide of the present invention was prepared in accordance with Formulation Example 3 and diluted with water, and 0.5 ml of the resulting dilution was sprayed into the above glass cylinder with a spraying tower (manufactured by Mizuho Rika) (duplicates at a concentration). The cylinder was kept in a constant temperature room at 25° C., and the mortality and agony of the larvae were investigated after 5 days from the treatment to obtain a death rate (%) taking an agonizing insect as a ½ dead insect. The results obtained are shown in Table 2 (the compound numbers in the table correspond to the numbers in Table 1).

Myzus persicae = test: Insecticidal effect on larvae of green peach aphid, leaf soak; type: in vivo; settings: 500 ppm, leaves soaked about 5 seconds, 25° C., 4th day after treatment
Experimental: Water was put in a screw bottle (volume: 10 ml), and a leaftalk of Japanese radish was placed therein and then inoculated with 5 to 6 insects of Myzus persicae per leave. After the inoculation, the bottle was put in a glass cylinder (diameter: 3.5 cm; height: 15 cm, with a mesh cover), and the insects were let to proliferate in a constant temperature room kept at 25° C. for 3 days. The imagoes on the leaves were removed, and the leaves were soaked in an aqueous dilution of an agricultural and horticultural insecticide of the present invention prepared in accordance with Formulation Example 3 (for about 5 seconds) and then returned into the glass cylinder (duplicates at a concentration). The cylinder was kept in the constant temperature room at 25° C., and the number of the insects on the leaves was counted on the 4th day after the treatment to obtain a death rate (%) based on the results. The results obtained are shown in Table 5 (the compound numbers in the table correspond to the numbers in Table 1).

Cat Flea = test: Insecticidal effect on cat flea, treated filter; type: in vivo; settings: 0.7 mg/filter; mortality investigated on 1st day and 2nd day after treatment
Experimental: Onto a round filter (diameter: 10 cm) was added dropwise 0.7 ml of an agent solution diluted to a predetermined concentration. After drying, the filter was placed on the bottom of a cylinder (diameter: 10 cm×height: 30 cm). Ten fleas were set free therein and the mortality was investigated on 1st day and 2nd day after the treatment to calculate a death rate (%) based on the results. The results are shown in Table 7 (the compound numbers in the table correspond to the numbers in Table 1).

## CSc1c(C#N)nn(-c2c(Cl)cc(C(F)(F)F)cc2Cl)c1NCc1ccncc1 [Compound I]
Nilaparvata lugens [1]
  Death rate (%) 0.8 ppm: 100%
  Death rate (%) 3.1 ppm: 100%
  insecticidal activity through systemic property, in words: insecticidal activity through a high systemic property
[2]
  IMC test result (inhibition of gap-junctional intercellular communication, index of tumor-promoting action): positive
[2]; at 7.5 and 15 μg/ml, V79 hgprt+/hgprt- mixed culture with 6-thioguanine
  colony forming rate: significant increase

## N#Cc1nn(-c2c(Cl)cc(C(F)(F)F)cc2Cl)c(NCc2ccncc2)c1SCF [Compound No. 1, 1-(2,6-dichloro-4-trifluoromethylphenyl)-4-fluoromethylthio-5-(pyridin-4-ylmethylamino)pyrazole-3-carbonitrile]
Nilaparvata lugens [1]
  Death rate (%) 0.8 ppm: 100%
  Death rate (%) 3.1 ppm: 100%
Plutella xylostella
  Death rate (%): 100%
Callosobruchus chinensis
  Death rate (%): 100%
Nilaparvata lugens [3]
  Death rate (%): 100%
Myzus persicae
  Death rate (%): 100%

## N#Cc1nn(-c2c(Cl)cc(C(F)(F)F)cc2Cl)c(NCc2ccccn2)c1SC(F)F [Compound No. 2, 1-(2,6-dichloro-4-trifluoromethylphenyl)-4-difluoromethylthio-5-(pyridin-2-ylmethylamino)pyrazole-3-carbonitrile]
Nilaparvata lugens [1]
  Death rate (%) 0.8 ppm: 100%
  Death rate (%) 3.1 ppm: 100%
Cat Flea
  Death rate (%): 100%
Plutella xylostella
  Death rate (%): 100%
Callosobruchus chinensis
  Death rate (%): 100%
Nilaparvata lugens [3]
  Death rate (%): 100%
Myzus persicae
  Death rate (%): 100%
[2]; V79 hgprt+/hgprt- mixed culture with 6-thioguanine
  IMC test result (inhibition of gap-junctional intercellular communication, index of tumor-promoting action): negative

## N#Cc1nn(-c2c(Cl)cc(C(F)(F)F)cc2Cl)c(NCc2ccccn2)c1SC(F)(F)F [III]
Nilaparvata lugens [1]
  Death rate (%) 0.8 ppm: 0%
  Death rate (%) 3.1 ppm: 0%
  insecticidal activity through systemic property, in words: obviously inferior effect

## N#Cc1nn(-c2c(Cl)cc(C(F)(F)F)cc2Cl)c(NCc2ccncc2)c1SC(F)(F)F [II]
Nilaparvata lugens [1]
  Death rate (%) 0.8 ppm: 20%
  Death rate (%) 3.1 ppm: 50%
  insecticidal activity through systemic property, in words: obviously inferior effect
